The test system of the series is CCRIS mutagenicity, Ames/micronucleus/aberration tests. Briefly: CCRIS mutagenicity studies.
Where [1] appears, read: Test System: AMES SALMONELLA TYPHIMURIUM, Strain/Indicator: TA98, Metabolic Activation: NONE, Method: PREINCUBATION
Where [2] appears, read: Test System: AMES SALMONELLA TYPHIMURIUM, Strain/Indicator: TA100, Metabolic Activation: NONE, Method: PREINCUBATION
[3] abbreviates: Test System: AMES SALMONELLA TYPHIMURIUM, Strain/Indicator: TA1535, Metabolic Activation: NONE, Method: PREINCUBATION
The mark [4] stands for this setting: Test System: AMES SALMONELLA TYPHIMURIUM, Strain/Indicator: TA1537, Metabolic Activation: NONE, Method: PREINCUBATION
[5] abbreviates: Test System: AMES SALMONELLA TYPHIMURIUM, Strain/Indicator: TA98, Metabolic Activation: NONE, Method: STANDARD PLATE.
The mark [6] stands for this setting: Test System: AMES SALMONELLA TYPHIMURIUM, Strain/Indicator: TA100, Metabolic Activation: NONE, Method: STANDARD PLATE.
Setting [7] is: Test System: AMES SALMONELLA TYPHIMURIUM, Strain/Indicator: TA100, Metabolic Activation: RAT, LIVER, S-9, AROCLOR 1254, Method: STANDARD PLATE.

Drawing on PubChem BioAssay AID1259407 (Chemical Carcinogenesis Research Information System (CCRIS), 2018), this text covers mutagenic call for eight compounds.

Each structure is given as a SMILES string. Calls of active or inactive are those of the source. The rule behind the calls is not given here.

For `O=C1NC(=O)c2ccccc21`, the mutagenic call (Test System: Ames Salmonella typhimurium, Strain/Indicator: TA98, Metabolic Activation: None, Method: Preincubation) was “inactive; negative”; the mutagenic call (Test System: Ames Salmonella typhimurium, Strain/Indicator: TA98, Metabolic Activation: Rat, Liver, S-9, Phenobarbital and 5,6-benzoflavone, Method: Preincubation) was “inactive; negative”; the mutagenic call (Test System: Ames Salmonella typhimurium, Strain/Indicator: TA100, Metabolic Activation: None, Method: Preincubation) is “inactive; negative”; the mutagenic call (Test System: Ames Salmonella typhimurium, Strain/Indicator: TA100, Metabolic Activation: Rat, Liver, S-9, Phenobarbital and 5,6-benzoflavone, Method: Preincubation) is “inactive; negative”; the mutagenic call (Test System: Ames Salmonella typhimurium, Strain/Indicator: TA1535, Metabolic Activation: None, Method: Preincubation) was “inactive; negative”; the mutagenic call (Test System: Ames Salmonella typhimurium, Strain/Indicator: TA1535, Metabolic Activation: Rat, Liver, S-9, Phenobarbital and 5,6-benzoflavone, Method: Preincubation) is “inactive; negative”. For the same compound, the mutagenic call reads like this: (Test System: Ames Salmonella typhimurium, Strain/Indicator: TA1537, Metabolic Activation: None, Method: Preincubation) “inactive; negative”; (Test System: Ames Salmonella typhimurium, Strain/Indicator: TA1537, Metabolic Activation: Rat, Liver, S-9, Phenobarbital and 5,6-benzoflavone, Method: Preincubation) “inactive; negative”; (Test System: E. coli, Strain/Indicator: WP2uvrA/pKM101, Metabolic Activation: None, Method: Preincubation) “inactive; negative”; (Test System: E. coli, Strain/Indicator: WP2uvrA/pKM101, Metabolic Activation: Rat, Liver, S-9, Phenobarbital and 5,6-benzoflavone, Method: Preincubation) “inactive; negative”.

Take `COC(=O)NC(=S)Nc1ccccc1NC(=S)NC(=O)OC`: the mutagenic call is, setting by setting: (Test System: AMES SALMONELLA TYPHIMURIUM, Strain/Indicator: TA97, Metabolic Activation: HAMSTER, LIVER, S-9, AROCLOR 1254 (10 OR 30%), Method: PREINCUBATION) “inactive; negative”; (Test System: AMES SALMONELLA TYPHIMURIUM, Strain/Indicator: TA97, Metabolic Activation: NONE, Method: PREINCUBATION) “inactive; negative”; (Test System: AMES SALMONELLA TYPHIMURIUM, Strain/Indicator: TA97, Metabolic Activation: RAT, LIVER, S-9, AROCLOR 1254 (10 OR 30%), Method: PREINCUBATION) “inactive; negative”; (Test System: AMES SALMONELLA TYPHIMURIUM, Strain/Indicator: TA98, Metabolic Activation: HAMSTER, LIVER, S-9, AROCLOR 1254 (10 OR 30%), Method: PREINCUBATION) “inactive; negative”; (Test System: AMES SALMONELLA TYPHIMURIUM, Strain/Indicator: TA98, Metabolic Activation: HAMSTER, LIVER, S-9, AROCLOR 1254 (30%), Method: PREINCUBATION) “active; positive”; under setting [1], “inactive; negative”. For the same compound, the mutagenic call is “inactive; negative” (Test System: AMES SALMONELLA TYPHIMURIUM, Strain/Indicator: TA98, Metabolic Activation: RAT, LIVER, S-9, AROCLOR 1254 (10 OR 30%), Method: PREINCUBATION); “inactive; negative” (Test System: AMES SALMONELLA TYPHIMURIUM, Strain/Indicator: TA98, Metabolic Activation: RAT, LIVER, S-9, AROCLOR 1254 (30%), Method: PREINCUBATION); “inactive; negative” (Test System: AMES SALMONELLA TYPHIMURIUM, Strain/Indicator: TA100, Metabolic Activation: HAMSTER, LIVER, S-9, AROCLOR 1254 (10 OR 30%), Method: PREINCUBATION); “active; positive” (Test System: AMES SALMONELLA TYPHIMURIUM, Strain/Indicator: TA100, Metabolic Activation: HAMSTER, LIVER, S-9, AROCLOR 1254 (30%), Method: PREINCUBATION); “inactive; negative” under setting [2]; “inactive; negative” (Test System: AMES SALMONELLA TYPHIMURIUM, Strain/Indicator: TA100, Metabolic Activation: RAT, LIVER, S-9, AROCLOR 1254 (10 OR 30%), Method: PREINCUBATION). In addition, the mutagenic call by setting is: (Test System: AMES SALMONELLA TYPHIMURIUM, Strain/Indicator: TA1535, Metabolic Activation: HAMSTER, LIVER, S-9, AROCLOR 1254 (10 OR 30%), Method: PREINCUBATION) “inactive; negative”; under setting [3], “inactive; negative”; (Test System: AMES SALMONELLA TYPHIMURIUM, Strain/Indicator: TA1535, Metabolic Activation: RAT, LIVER, S-9, AROCLOR 1254 (10 OR 30%), Method: PREINCUBATION) “inactive; negative”; (Test System: AMES SALMONELLA TYPHIMURIUM, Strain/Indicator: TA1537, Metabolic Activation: HAMSTER, LIVER, S-9, AROCLOR 1254 (30%), Method: PREINCUBATION) “inactive; negative”; under setting [4], “inactive; negative”; (Test System: AMES SALMONELLA TYPHIMURIUM, Strain/Indicator: TA1537, Metabolic Activation: RAT, LIVER, S-9, AROCLOR 1254 (30%), Method: PREINCUBATION) “inactive; negative”.

Turning to `Cc1ccccc1NC(=O)c1csc([N+](=O)[O-])c1`, the mutagenic call is, setting by setting: under setting [5], “active; positive”; under setting [6], “active; positive”.

For the compound `CC(=O)c1ccc(Cl)c(Cl)c1Cl`, the mutagenic call (Test System: AMES SALMONELLA TYPHIMURIUM, Strain/Indicator: TA98, Metabolic Activation: HAMSTER, LIVER, S-9, AROCLOR 1254, Method: STANDARD PLATE) was “active; positive”; the mutagenic call under setting [5] is “inactive; negative”; the mutagenic call (Test System: AMES SALMONELLA TYPHIMURIUM, Strain/Indicator: TA98, Metabolic Activation: RAT, LIVER, S-9, AROCLOR 1254, Method: STANDARD PLATE) was “inactive; negative”; the mutagenic call (Test System: AMES SALMONELLA TYPHIMURIUM, Strain/Indicator: TA100, Metabolic Activation: HAMSTER, LIVER, S-9, AROCLOR 1254, Method: STANDARD PLATE) is “active; positive”; the mutagenic call under setting [6] is “inactive; negative”; the mutagenic call under setting [7] was “active; positive”. Besides, the mutagenic call runs as follows: (Test System: MOUSE LYMPHOMA, Strain/Indicator: L5178Y (TK+/TK-), Metabolic Activation: NONE, Method: SUSPENSION/PLATE) “inactive; negative. reevaluation of results: inconclusive”; (Test System: MOUSE LYMPHOMA, Strain/Indicator: L5178Y (TK+/TK-), Metabolic Activation: RAT, LIVER, S-9, AROCLOR 1254, Method: SUSPENSION/PLATE) “inactive; negative. reevaluation of results: negative”.

`CCOCCOC(=O)/C=C/c1ccc(OC)cc1`: the mutagenic call reads like this: (Test System: AMES SALMONELLA TYPHIMURIUM, Strain/Indicator: TA98, Metabolic Activation: HAMSTER, LIVER, S-9, AROCLOR 1254 (10%), Method: PREINCUBATION) “inactive; negative”; under setting [1], “inactive; negative”; (Test System: AMES SALMONELLA TYPHIMURIUM, Strain/Indicator: TA98, Metabolic Activation: RAT, LIVER, S-9, AROCLOR 1254 (10%), Method: PREINCUBATION) “inactive; negative”; (Test System: AMES SALMONELLA TYPHIMURIUM, Strain/Indicator: TA100, Metabolic Activation: HAMSTER, LIVER, S-9, AROCLOR 1254 (10%), Method: PREINCUBATION) “inactive; negative”; under setting [2], “inactive; negative”; (Test System: AMES SALMONELLA TYPHIMURIUM, Strain/Indicator: TA100, Metabolic Activation: RAT, LIVER, S-9, AROCLOR 1254 (10%), Method: PREINCUBATION) “inactive; negative”. Besides, the mutagenic call was “inactive; negative” (Test System: AMES SALMONELLA TYPHIMURIUM, Strain/Indicator: TA1535, Metabolic Activation: HAMSTER, LIVER, S-9, AROCLOR 1254 (10%), Method: PREINCUBATION); “inactive; negative” under setting [3]; “inactive; negative” (Test System: AMES SALMONELLA TYPHIMURIUM, Strain/Indicator: TA1535, Metabolic Activation: RAT, LIVER, S-9, AROCLOR 1254 (10%), Method: PREINCUBATION); “inactive; negative” (Test System: AMES SALMONELLA TYPHIMURIUM, Strain/Indicator: TA1537, Metabolic Activation: HAMSTER, LIVER, S-9, AROCLOR 1254 (10%), Method: PREINCUBATION); “inactive; negative” under setting [4]; “inactive; negative” (Test System: AMES SALMONELLA TYPHIMURIUM, Strain/Indicator: TA1537, Metabolic Activation: RAT, LIVER, S-9, AROCLOR 1254 (10%), Method: PREINCUBATION).

Regarding `CC[C@@H](C)[C@@H](N)C(=O)OC`, the mutagenic call (End Point: IN VIVO MICRONUCLEUS, Test System: BONE MARROW POLYCHROMATIC ERYTHROCYTES, Species: MOUSE, Strain/Sex: DDY/MALE, Route: IP) is “inactive; negative”.

Turning to `CCCC(=O)OCc1cccc([N+](=O)[O-])c1`, the mutagenic call by setting is: under setting [1], “inactive; negative”; under setting [2], “inactive; negative”; (Test System: AMES SALMONELLA TYPHIMURIUM, Strain/Indicator: TA100, Metabolic Activation: RAT, LIVER, S-9, AROCLOR 1254, Method: PREINCUBATION) “inactive; negative”.

For `C[C@@H]1CC2c3cccc4c3c(cn4C3CCCC3)C[C@H]2N(C)C1` (stereo not given in full), under setting [7], the mutagenic call was “active; positive”.
